Patent publication US20250042889A1, “3CLPRO PROTEASE INHIBITOR” (SHANGHAI QILU PHARMACEUTICAL RESEARCH AND DEVELOPMENT …, priority 2021, published 2025)

Biological target: SARS-COV-2 3CLpro/Mpro protease (Severe acute respiratory syndrome coronavirus 2 (2019-nCoV) (SARS-CoV-2), UniProt P0DTD1)
Assay: Inhibitory effect on SARS-COV-2 3CLpro/Mpro protease by fluorescence resonance energy transfer
Format: biochemical
Settings: activity intervals A-D, read-out: IC50 (nM), Inhibition on SARS-CoV-2 3CLpro/Mpro protease

SMILES	IC50 [nM]
O=C(N[C@H]1COCC[C@H]1Nc1c(C(=O)N2CCCCC2)cc(Br)cc1[N+](=O)[O-])c1cncc2cc(Cl)ccc12 [Example 193]	10 to 50
O=C(N[C@H]1COCC[C@H]1Nc1c(C(=O)N2CCCCC2)cc(Br)cc1[N+](=O)[O-])c1cncc2ccccc12 [Example 194]	10 to 50
COCCN1[C@H](C)CN(C(=O)c2cc(Br)cc([N+](=O)[O-])c2N[C@@H]2COCC[C@@H]2NC(=O)c2cncc3ccccc23)C[C@@H]1C [Example 195]	10 to 50
CNc1cncc(C(=O)N[C@H]2CCCC[C@H]2Nc2c(C(=O)N3CCCCC3)cc(Br)cc2[N+](=O)[O-])c1 [Example 196]	10 to 50
O=C(c1cncc(Br)c1)N1C[C@H](Nc2c(C(=O)N3CCCCC3)cc(Br)cc2[N+](=O)[O-])C(F)(F)C1 [Example 197]	10 to 50
CNc1cncc(C(=O)N[C@H]2CCCC[C@H]2Nc2c(C(=O)N3C[C@@H](C)O[C@@H](C)C3)cc(Br)cc2[N+](=O)[O-])c1 [Example 198]	10 to 50
CNc1cncc(C(=O)N2C[C@H](Nc3c(C(=O)N4C[C@@H](C)O[C@H](C)C4)cc(Br)cc3[N+](=O)[O-])C(F)(F)C2)c1 [Example 199]	50 to 100
CNc1cncc(C(=O)N2CCC[C@@H](Nc3c(C(=O)N4CCOCC4)cc(Br)cc3[N+](=O)[O-])C2)c1 [Example 200]	10 to 50
CNc1cncc(C(=O)N[C@H]2CCOC[C@H]2Nc2c(C(=O)N3CCCCC3)cc(Br)cc2[N+](=O)[O-])c1 [Example 201]	10 to 50
CNc1cncc(C(=O)N2C[C@H](Nc3c(C(=O)N4C[C@H](C)C[C@@H](C)C4)cc(Br)cc3[N+](=O)[O-])C(F)(F)C2)c1 [Example 202]	10 to 50
C[C@@H]1CN(C(=O)c2cc(Br)cc([N+](=O)[O-])c2N[C@H]2CN(C(=O)c3cncc(Br)c3)CC2(F)F)C[C@H](C)O1 [Example 203]	10 to 50
O=C1CC(C(=O)N2CCC[C@@H](Nc3c(C(=O)N4CCCCC4)cc(Br)cc3[N+](=O)[O-])C2)c2ccccc2N1 (some centres unmarked) [Example 204]	10 to 50
O=C(N[C@H]1CCOC[C@H]1Nc1c(C(=O)N2CCCCC2)cc(Br)cc1[N+](=O)[O-])c1cncc2ccccc12 [Example 205]	< 10
O=C(N[C@H]1COCC[C@H]1Nc1c(C(=O)N2CCC(F)(F)CC2)cc(Br)cc1[N+](=O)[O-])c1cncc2cc(Cl)ccc12 [Example 206]	50 to 100
O=C(N[C@H]1CCCC[C@H]1Nc1c(C(=O)N2C[C@@H](O)C[C@@H](NC(=O)C(F)(F)F)C2)cc(Br)cc1C(F)(F)F)c1cncc2cc(Cl)ccc12 [Example 207]	10 to 50
COCCN1CCN(C(=O)c2cc(Br)cc([N+](=O)[O-])c2N[C@H]2CN(C(=O)c3cncc(I)c3)CC2(F)F)CC1 [Example 208]	10 to 50
O=C(c1cncc(I)c1)N1C[C@H](Nc2c(C(=O)N3CCCCC3)cc(Br)cc2[N+](=O)[O-])C(F)(F)C1 [Example 209]	10 to 50
C[C@@H]1CN(C(=O)c2cc(Br)cc(C(F)(F)F)c2N[C@@H]2CCOC[C@@H]2NC(=O)c2cncc3ccccc23)C[C@H](C)O1 [Example 210]	10 to 50
COCCN1[C@H](C)CN(C(=O)c2cc(Br)cc([N+](=O)[O-])c2N[C@@H]2CCOC[C@@H]2NC(=O)c2cncc3ccccc23)C[C@@H]1C [Example 211]	10 to 50
CNc1cncc(C(=O)N2CCC[C@@H](Nc3c(C(=O)N4C[C@@H](C)O[C@H](C)C4)cc(Br)cc3[N+](=O)[O-])C2)c1 [Example 212]	10 to 50

SMILES	IC50 [nM]
CNc1cncc(C(=O)N2CCC[C@@H](Nc3c(C(=O)N4C[C@H](C)O[C@@H](C)C4)cc(Br)cc3[N+](=O)[O-])C2)c1 [Example 213]	10 to 50
C[C@@H]1CN(C(=O)c2cc(Br)cc([N+](=O)[O-])c2N[C@@H]2COCC[C@@H]2NC(=O)c2cncc3ccccc23)C[C@H](C)O1 [Example 214]	10 to 50
COCCN1CCN(C(=O)c2cc(Br)cc([N+](=O)[O-])c2N[C@@H]2COCC[C@@H]2NC(=O)c2cncc3cc(Cl)ccc23)CC1 [Example 215]	10 to 50
CC(=O)Nc1cncc(C(=O)N2CCC[C@@H](Nc3c(C(=O)N4CCCCC4)cc(Br)cc3[N+](=O)[O-])C2)c1 [Example 216]	10 to 50
CNc1cncc(C(=O)N[C@H]2CCCC[C@H]2Nc2c(C(=O)N3C[C@H](C)O[C@@H](C)C3)cc(Br)cc2[N+](=O)[O-])c1 [Example 217]	50 to 100
COCCN1CCN(C(=O)c2cc(Br)cc([N+](=O)[O-])c2N[C@@H]2COCC[C@@H]2NC(=O)c2cncc3ccccc23)CC1 [Example 218]	10 to 50
CNc1cncc(C(=O)N2CCC[C@@H](Nc3c(C(=O)N4CCO[C@@H](C)C4)cc(Br)cc3[N+](=O)[O-])C2)c1 [Example 219]	10 to 50
C[C@@H]1CN(C(=O)c2cc(Br)cc([N+](=O)[O-])c2N[C@H]2CN(C(=O)c3cncc(Br)c3)CC2(C)C)C[C@@H](C)O1 [Example 220]	50 to 100
CNc1cncc(C(=O)N[C@H]2CCOC[C@H]2Nc2c(C(=O)N3CCN(CCOC)CC3)cc(Br)cc2[N+](=O)[O-])c1 [Example 221]	10 to 50
CNc1cncc(C(=O)N[C@H]2CCCC[C@H]2Nc2c(C(=O)N3CCN(CCOC)CC3)cc(Br)cc2[N+](=O)[O-])c1 [Example 222]	10 to 50
CNc1cncc(C(=O)N[C@H]2CCCC[C@H]2Nc2c(C(=O)N3C[C@@H](C)O[C@H](C)C3)cc(Br)cc2[N+](=O)[O-])c1 [Example 223]	10 to 50
CNc1cncc(C(=O)N[C@H]2CCOC[C@H]2Nc2c(C(=O)N3C[C@H](C)O[C@@H](C)C3)cc(Br)cc2[N+](=O)[O-])c1 [Example 224]	10 to 50
C[C@H]1CN(C(=O)c2cc(Br)cc([N+](=O)[O-])c2N[C@H]2CN(C(=O)c3cncc(Br)c3)CC2(C)C)C[C@H](C)O1 [Example 225]	< 10
CNc1cncc(C(=O)N[C@H]2CCOC[C@H]2Nc2c(C(=O)N3CCC[C@@H](C)C3)cc(Br)cc2[N+](=O)[O-])c1 [Example 226]	10 to 50
COCCN1CCN(C(=O)c2cc(Br)cc([N+](=O)[O-])c2N[C@@H]2CCOC[C@@H]2NC(=O)c2cncc3ccccc23)CC1 [Example 227]	10 to 50
C[C@@H]1CN(C(=O)c2cc(Br)cc([N+](=O)[O-])c2N[C@@H]2COCC[C@@H]2NC(=O)c2cncc3cc(Cl)ccc23)C[C@H](C)N1 [Example 228]	10 to 50
CNc1cncc(C(=O)N2CCC[C@@H](Nc3c(C(=O)N4CCC5(CCOC5)CC4)cc(Br)cc3[N+](=O)[O-])C2)c1 [Example 230]	< 10
CNc1cncc(C(=O)N[C@H]2CCCC[C@H]2Nc2c(C(=O)N3CCO[C@@H](C)C3)cc(Br)cc2[N+](=O)[O-])c1 [Example 231]	10 to 50
CNc1cncc(C(=O)N2CCC[C@@H](Nc3c(C(=O)N4CC5COCC5C4)cc(Br)cc3[N+](=O)[O-])C2)c1 (some centres unmarked) [Example 232]	10 to 50
CNc1cncc(C(=O)N2CCC[C@@H](Nc3c(C(=O)N4C[C@@H](C)N(CCOC)[C@@H](C)C4)cc(Br)cc3[N+](=O)[O-])C2)c1 [Example 233]	50 to 100

SMILES	IC50 [nM]
CNc1cncc(C(=O)N[C@H]2CCOC[C@H]2Nc2c(C(=O)N3CCC[C@H](C)C3)cc(Br)cc2[N+](=O)[O-])c1 [Example 234]	10 to 50
CNc1cncc(C(=O)N2CCC[C@@H](Nc3c(C(=O)N4CCN(C5CCOCC5)CC4)cc(Br)cc3[N+](=O)[O-])C2)c1 [Example 235]	10 to 50
CNc1cncc(C(=O)N2CCC[C@@H](Nc3c(C(=O)N4CCC5(CC4)COC5)cc(Br)cc3[N+](=O)[O-])C2)c1 [Example 236]	10 to 50
CNc1cncc(C(=O)N[C@H]2CCCC[C@H]2Nc2c(C(=O)N3CCO[C@H](C)C3)cc(Br)cc2[N+](=O)[O-])c1 [Example 237]	10 to 50
CNc1cncc(C(=O)N2CCC[C@@H](Nc3c(C(=O)N4CCN(CCOC)[C@H](C)C4)cc(Br)cc3[N+](=O)[O-])C2)c1 [Example 238]	10 to 50
CNc1cncc(C(=O)N2CCC[C@@H](Nc3c(C(=O)N4CCC[C@H](OC)C4)cc(Br)cc3[N+](=O)[O-])C2)c1 [Example 239]	10 to 50
CNc1cncc(C(=O)N2CCC[C@@H](Nc3c(C(=O)N4CCC(O)(C(F)(F)F)CC4)cc(Br)cc3[N+](=O)[O-])C2)c1 [Example 240]	10 to 50
CNc1cncc(C(=O)N2CCC[C@@H](Nc3c(C(=O)N4CCC(C)(O)CC4)cc(Br)cc3[N+](=O)[O-])C2)c1 [Example 241]	10 to 50
CNc1cncc(C(=O)N2CCC[C@@H](Nc3c(C(=O)N4C[C@H](C)N(CCOC)[C@@H](C)C4)cc(Br)cc3[N+](=O)[O-])C2)c1 [Example 242]	10 to 50
CNc1cncc(C(=O)N2CCC[C@@H](Nc3c(C(=O)N4CC[C@H](OC)C4)cc(Br)cc3[N+](=O)[O-])C2)c1 [Example 244]	10 to 50
CNc1cncc(C(=O)N2C[C@H](Nc3c(C(=O)N4CCCCC4)cc(Br)cc3[N+](=O)[O-])C(C)(O)C2)c1 (some centres unmarked) [Example 245]	50 to 100
CC1(O)CN(C(=O)c2cncc(Br)c2)C[C@@H]1Nc1c(C(=O)N2CCCCC2)cc(Br)cc1[N+](=O)[O-] (some centres unmarked) [Example 246]	10 to 50
CNc1cncc(C(=O)N2CCC[C@@H](Nc3c(C(=O)N4CCN(CCOC)[C@@H](C)C4)cc(Br)cc3[N+](=O)[O-])C2)c1 [Example 247]	10 to 50
CNc1cncc(C(=O)N2CCC[C@@H](Nc3c(C(=O)N4CCC(C)CC4)cc(Br)cc3[N+](=O)[O-])C2)c1 [Example 248]	10 to 50
COCCN1CCN(C(=O)c2cc(Br)cc([N+](=O)[O-])c2N[C@@H]2CCCN(C(=O)[C@H]3CC(=O)N[C@@H](C)C3)C2)CC1 [Example 249]	10 to 50
CNc1cncc(C(=O)N2CCC[C@@H](Nc3c(C(=O)N4CCC5(CCOCC5)CC4)cc(Br)cc3[N+](=O)[O-])C2)c1 [Example 250]	10 to 50
CNc1cncc(C(=O)N2CCC[C@@H](Nc3c(C(=O)N4C[C@H](C)C[C@H](C)C4)cc(Br)cc3[N+](=O)[O-])C2)c1 [Example 251]	50 to 100
CNc1cncc(C(=O)N2CCC[C@@H](Nc3c(C(=O)N4CCC(C)(C)CC4)cc(Br)cc3[N+](=O)[O-])C2)c1 [Example 252]	10 to 50
CNc1cncc(C(=O)N2CCC[C@@H](Nc3c(C(=O)N4CCC[C@@H](C)C4)cc(Br)cc3[N+](=O)[O-])C2)c1 [Example 253]	50 to 100
